Results published in ChEMBL document CHEMBL1201862, “PubChem BioAssay data set” (2004).
Active and inactive are the calls of the source.

Legend:
[1] = target: T1, Kappa-type opioid receptor (Homo sapiens, UniProt P41145); type: functional
[2] = target: Nucleotide-binding oligomerization domain-containing protein 2 (Homo sapiens, UniProt Q9HC29); assay: inhibition of NOD2-driven NF-kB reporter – cell-based, luminescence, uHTS, HEK293 (AID 1566); type: functional
[3] = NIH3T3 cell viability loss – ATP luminescence, mouse fibroblasts, counter-screen, dose response (AID 2010); type: functional, cell-based;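 also: cells exposed to compound for about 90 hours before reading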
[4] = test system: HEK293; assay: cells; type: functional, cell-based; settings: Homo sapiens
[5] = test system: HEK293; assay: EBV LMP1 TES2 canonical NF-kB signalling blockers – cell-based, HEK293, luciferase, cherry-pick, dose response (AID 588343); type: functional; settings: Homo sapiens
[6] = non-specific 3'UTR reporter inhibition in Clone20-Shn3RL – cell-based, Renilla luciferase, cherry-picked, counter-screen for Shn3 inhibitor project, dose response (AID 624133); type: functional
[7] = test system: HEK293; assay: NOD2 signaling inhibitors in MDP-stimulated cells, cell-based, uHTS, luminescence (AID 2001); type: functional; settings: Homo sapiens
[8] = test system: HEK293; assay: cells; type: functional, cell-based; settings: Homo sapiens; remark: listed apart in the source
[9] = target: T1, Kappa-type opioid receptor; type: functional; remark: listed apart in the source
[10] = target: Beta-galactosidase (Escherichia coli, UniProt Q8VNN2); type: functional
[11] = HEK-293T viability loss after treatment – luminescence, T-cell screen hits, cytotoxicity control for TCR NF-kB inhibitor project, dose response (AID 489026); type: functional, cell-based;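 also: cells exposed to compound about 14 hours before the viability readout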
[12] = mammalian cell viability loss – Alamar Blue, dry powder, cytotoxicity control for antifungal single agent project, dose response (AID 602188); type: functional, cell-based
[13] = loss of viability in HepG2 cells – cell-based, CellTiter-Glo, cherry-picked, cytotoxicity control for Shn3 inhibitor project, dose response (AID 624134); type: functional
[14] = reduction of Shn3 3'UTR-driven luciferase in osteoblasts – cell-based, Clone20 osteoblasts, firefly luciferase, cherry-picked, dose response (AID 624132); type: functional;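 also: firefly luciferase luminescence from reporter carrying the Shn3 3'UTR in osteoblasts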
[15] = target: T2, Heat shock factor protein 1 (Mus musculus, UniProt P38532); assay: enhancement of HSF1-driven luciferase signal – cell-based, NIH3T3, luminescence, dose retest, confirmation (AID 435004); type: functional;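 also: stress induced by proteasome inhibitor MG132 added 30 min after compound; luciferase reporter driven by HSF1 response element in NIH3T3 cells; actives raise luminescence as potentiators of the MG132 stress response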
T2 sequence (P38532 whole entry): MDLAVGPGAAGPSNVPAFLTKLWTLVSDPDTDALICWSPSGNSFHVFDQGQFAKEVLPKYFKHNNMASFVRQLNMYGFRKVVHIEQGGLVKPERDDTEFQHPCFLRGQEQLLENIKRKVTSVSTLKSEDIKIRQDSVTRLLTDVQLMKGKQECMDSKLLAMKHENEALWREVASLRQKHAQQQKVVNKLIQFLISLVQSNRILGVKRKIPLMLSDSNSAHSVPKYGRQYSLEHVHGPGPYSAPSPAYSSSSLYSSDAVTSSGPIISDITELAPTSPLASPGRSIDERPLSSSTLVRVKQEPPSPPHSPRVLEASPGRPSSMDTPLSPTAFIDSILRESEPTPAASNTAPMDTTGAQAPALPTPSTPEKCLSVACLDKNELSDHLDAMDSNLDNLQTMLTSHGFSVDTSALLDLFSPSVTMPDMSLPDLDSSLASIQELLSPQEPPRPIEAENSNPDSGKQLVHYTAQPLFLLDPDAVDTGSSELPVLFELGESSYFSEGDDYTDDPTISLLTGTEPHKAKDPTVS

[16] = test system: HEK293; assay: inhibition of NOD1-driven NF-kB reporter – cell-based, luminescence, uHTS, primary screen (AID 1578); type: functional; settings: Homo sapiens
[17] = test system: HEK293; assay: cells; type: functional, cell-based; settings: Homo sapiens; remark: listed apart in the source
[18] = Trypanosoma cruzi growth suppression in host cells – NIH3T3 host cells, beta-gal luminescence, confirmation (AID 2044); type: functional, cell-based;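 also: intracellular parasites grown in NIH/3T3 mouse fibroblasts as host cells; luminescent beta-galactosidase reporter signal from transgenic T. cruzi replicating inside host cells; inhibitors lower the luminescence signal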
[19] = test system: INS1; assay: INS-1E survival protection against cytokine death – cell-based, luminescence, retest, dose response (AID 449756); type: functional; settings: Rattus norvegicus;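 also: cell death triggered by IL-1 beta plus TNF-alpha plus IFN-gamma mixture; protective hits raise ATP signal compared with cytokine alone wells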
[20] = target: Melanin-concentrating hormone receptor 1 (Homo sapiens, UniProt Q99705); assay: Late-stage fluorescence-based counterscreen for antagonists of the G-protein coupled receptor 7 (GPR7): cell-based dose response assay to identify antagonists of the melanin-concentrating hormone receptor 1 (MCHR1) Set 5.; type: functional
[21] = target: T3, Neuropeptides B/W receptor type 1 (Homo sapiens, UniProt P48145); assay: human NPBW1 receptor blockade, IC50 – cell-based, fluorescence, dose response, set 5, late-stage follow-up (AID 588566); type: functional
T3 sequence (P48145 whole entry): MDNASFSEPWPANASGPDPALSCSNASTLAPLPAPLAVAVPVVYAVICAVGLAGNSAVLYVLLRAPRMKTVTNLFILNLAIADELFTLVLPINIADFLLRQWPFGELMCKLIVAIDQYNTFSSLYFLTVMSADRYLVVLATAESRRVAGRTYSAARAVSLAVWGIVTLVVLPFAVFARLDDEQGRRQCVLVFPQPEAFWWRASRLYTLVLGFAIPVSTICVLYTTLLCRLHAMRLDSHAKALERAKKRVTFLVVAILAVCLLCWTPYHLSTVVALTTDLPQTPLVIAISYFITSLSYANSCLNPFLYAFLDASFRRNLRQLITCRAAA

[22] = target: Benomyl/methotrexate resistance protein (Candida albicans, UniProt P28873); assay: Candida albicans Mdr1 pump inhibition curves – singleplex, Cherry Pick1 hits, dose response (AID 588608); type: functional
[23] = luciferase reporter signal suppression in cells – H4 neuroglioma cells, luminescence, dose response (AID 1990); type: functional, cell-based
[24] = target: Heat shock protein HSP 90-alpha (Homo sapiens, UniProt P07900); type: functional, organism-based
[25] = target: T4, Ubiquitin-conjugating enzyme E2 N (Homo sapiens, UniProt P61088); type: functional
T4 sequence (P61088 whole entry): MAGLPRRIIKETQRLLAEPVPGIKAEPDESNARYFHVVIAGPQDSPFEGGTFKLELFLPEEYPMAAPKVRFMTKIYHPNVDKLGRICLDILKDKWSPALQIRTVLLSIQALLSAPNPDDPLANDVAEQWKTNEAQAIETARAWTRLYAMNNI

[26] = target: T4, Ubiquitin-conjugating enzyme E2 N; type: functional; remark: listed apart in the source
[27] = target: 72 kDa type IV collagenase (Homo sapiens, UniProt P08253); assay: Dose Response validation of uHTS RPN11 inhibitor hits using a MMP-2 Fluorescence assay.; type: functional
[28] = target: 26S proteasome non-ATPase regulatory subunit 14 (Homo sapiens, UniProt O00487); assay: inhibition of proteasome subunit RPN11 – biochemical, fluorescence polarization, uHTS hits, confirmation (AID 602368); type: functional
[29] = target: T5, Apoptotic protease-activating factor 1 (Homo sapiens, UniProt O14727); type: functional
T5 sequence (O14727 whole entry): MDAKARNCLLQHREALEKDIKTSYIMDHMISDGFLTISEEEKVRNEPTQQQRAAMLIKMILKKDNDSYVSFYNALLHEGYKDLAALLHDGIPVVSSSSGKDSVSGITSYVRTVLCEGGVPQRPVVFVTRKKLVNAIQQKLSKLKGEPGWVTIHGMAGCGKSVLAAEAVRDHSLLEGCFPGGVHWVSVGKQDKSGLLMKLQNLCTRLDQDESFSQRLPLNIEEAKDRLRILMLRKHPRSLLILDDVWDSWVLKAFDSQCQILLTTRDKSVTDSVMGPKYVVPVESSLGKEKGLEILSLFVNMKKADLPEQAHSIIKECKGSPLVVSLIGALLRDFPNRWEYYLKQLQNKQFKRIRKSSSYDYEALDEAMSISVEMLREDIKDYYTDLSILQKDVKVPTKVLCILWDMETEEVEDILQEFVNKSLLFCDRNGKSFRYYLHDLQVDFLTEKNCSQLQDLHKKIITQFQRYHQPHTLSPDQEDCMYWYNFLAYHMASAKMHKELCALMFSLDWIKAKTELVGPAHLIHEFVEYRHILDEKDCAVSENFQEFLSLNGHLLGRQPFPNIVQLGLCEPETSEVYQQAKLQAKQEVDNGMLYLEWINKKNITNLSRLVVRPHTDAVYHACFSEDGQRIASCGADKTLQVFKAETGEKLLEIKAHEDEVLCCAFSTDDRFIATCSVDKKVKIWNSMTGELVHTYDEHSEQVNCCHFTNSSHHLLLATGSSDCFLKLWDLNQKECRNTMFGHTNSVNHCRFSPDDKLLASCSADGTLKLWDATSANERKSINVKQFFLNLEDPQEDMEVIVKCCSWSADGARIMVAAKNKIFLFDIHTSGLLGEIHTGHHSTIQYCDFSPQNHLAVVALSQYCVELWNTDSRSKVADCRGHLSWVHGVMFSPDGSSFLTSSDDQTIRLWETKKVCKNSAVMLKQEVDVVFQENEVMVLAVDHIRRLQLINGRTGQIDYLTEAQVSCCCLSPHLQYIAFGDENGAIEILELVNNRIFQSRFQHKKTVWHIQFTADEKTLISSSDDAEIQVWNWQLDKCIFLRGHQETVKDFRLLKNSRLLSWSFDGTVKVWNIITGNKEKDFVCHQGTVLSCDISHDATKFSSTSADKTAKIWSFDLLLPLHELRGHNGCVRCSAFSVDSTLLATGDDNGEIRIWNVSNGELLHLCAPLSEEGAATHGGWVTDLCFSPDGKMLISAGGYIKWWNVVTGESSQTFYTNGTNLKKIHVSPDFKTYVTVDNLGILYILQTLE

[30] = alpha-synuclein stem-loop luciferase translation blockers – H4 neuroglioma cells, luminescence, confirmation (AID 1988); type: functional, cell-based
[31] = target: T6, DNA repair protein RAD52 homolog (Homo sapiens, UniProt P43351); type: functional, biochemical
T6 sequence (P43351 whole entry): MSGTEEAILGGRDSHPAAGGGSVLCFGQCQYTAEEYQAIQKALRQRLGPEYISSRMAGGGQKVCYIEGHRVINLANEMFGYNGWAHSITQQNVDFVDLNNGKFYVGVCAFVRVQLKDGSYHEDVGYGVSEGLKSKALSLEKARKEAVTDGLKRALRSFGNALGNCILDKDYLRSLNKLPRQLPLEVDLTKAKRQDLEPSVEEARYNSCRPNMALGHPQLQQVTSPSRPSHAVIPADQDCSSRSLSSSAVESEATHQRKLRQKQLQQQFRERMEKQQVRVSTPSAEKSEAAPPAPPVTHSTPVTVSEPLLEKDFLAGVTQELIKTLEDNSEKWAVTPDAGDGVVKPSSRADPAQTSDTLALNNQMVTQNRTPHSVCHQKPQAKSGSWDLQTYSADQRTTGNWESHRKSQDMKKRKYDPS

[32] = target: Prothrombin (Bos taurus, UniProt P00735); assay: thrombin protease inhibitors – biochemical, fluorescence polarization, uHTS hits, dose response (AID 602369); type: functional
[33] = target: T7, Bcl-2-related protein A1 (Mus musculus, UniProt Q07440); type: functional;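 also: confirmatory dose–response counterscreen on Bfl-1, used to check hits from a UBC13 polyubiquitin inhibitor campaign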
T7 sequence (Q07440 whole entry): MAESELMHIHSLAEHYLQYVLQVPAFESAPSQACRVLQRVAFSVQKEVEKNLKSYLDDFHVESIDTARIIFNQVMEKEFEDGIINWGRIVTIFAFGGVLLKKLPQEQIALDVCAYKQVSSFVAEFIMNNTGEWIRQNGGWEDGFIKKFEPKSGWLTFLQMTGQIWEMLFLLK

T1 sequence (P41145 whole entry, the tested form may be a part): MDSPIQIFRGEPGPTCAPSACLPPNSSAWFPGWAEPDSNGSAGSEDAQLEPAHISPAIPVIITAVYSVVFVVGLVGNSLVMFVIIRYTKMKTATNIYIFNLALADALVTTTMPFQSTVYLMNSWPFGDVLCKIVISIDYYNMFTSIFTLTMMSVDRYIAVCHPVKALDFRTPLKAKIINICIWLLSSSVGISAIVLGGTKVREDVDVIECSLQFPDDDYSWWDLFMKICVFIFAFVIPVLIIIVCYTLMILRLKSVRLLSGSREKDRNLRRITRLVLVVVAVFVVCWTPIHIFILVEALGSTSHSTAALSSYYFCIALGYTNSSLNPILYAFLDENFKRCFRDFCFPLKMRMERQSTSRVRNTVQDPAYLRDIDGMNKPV
Chain of Melanin-concentrating hormone receptor 1 (Q99705 whole entry): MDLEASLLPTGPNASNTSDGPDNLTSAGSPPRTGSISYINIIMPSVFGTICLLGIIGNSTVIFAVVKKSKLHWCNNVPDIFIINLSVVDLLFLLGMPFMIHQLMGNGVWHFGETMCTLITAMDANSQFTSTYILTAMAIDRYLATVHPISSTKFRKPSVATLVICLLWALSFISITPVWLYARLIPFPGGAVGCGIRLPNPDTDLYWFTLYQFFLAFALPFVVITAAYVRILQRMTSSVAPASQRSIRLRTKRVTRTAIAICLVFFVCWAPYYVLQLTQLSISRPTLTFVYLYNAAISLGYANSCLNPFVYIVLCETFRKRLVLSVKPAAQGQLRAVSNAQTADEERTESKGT
Chain of 72 kDa type IV collagenase (P08253 whole entry): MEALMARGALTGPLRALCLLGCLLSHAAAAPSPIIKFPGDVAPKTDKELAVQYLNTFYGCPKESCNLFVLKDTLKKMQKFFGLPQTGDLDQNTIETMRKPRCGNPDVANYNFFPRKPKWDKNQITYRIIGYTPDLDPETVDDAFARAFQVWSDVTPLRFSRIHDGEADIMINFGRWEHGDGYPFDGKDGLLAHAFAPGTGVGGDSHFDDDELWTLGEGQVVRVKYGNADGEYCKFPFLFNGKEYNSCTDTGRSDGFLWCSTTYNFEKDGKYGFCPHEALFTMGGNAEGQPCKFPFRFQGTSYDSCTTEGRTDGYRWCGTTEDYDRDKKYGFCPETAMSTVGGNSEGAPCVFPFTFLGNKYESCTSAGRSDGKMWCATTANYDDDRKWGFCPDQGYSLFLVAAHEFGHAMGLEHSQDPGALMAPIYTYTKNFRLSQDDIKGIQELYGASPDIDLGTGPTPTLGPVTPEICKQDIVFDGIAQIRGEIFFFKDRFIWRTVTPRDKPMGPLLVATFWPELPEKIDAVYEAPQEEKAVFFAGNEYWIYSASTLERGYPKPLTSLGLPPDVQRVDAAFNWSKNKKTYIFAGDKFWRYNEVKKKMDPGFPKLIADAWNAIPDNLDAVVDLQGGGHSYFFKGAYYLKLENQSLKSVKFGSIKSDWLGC
Chain of Nucleotide-binding oligomerization domain-containing protein 2 (Q9HC29 whole entry, the tested form may be a part): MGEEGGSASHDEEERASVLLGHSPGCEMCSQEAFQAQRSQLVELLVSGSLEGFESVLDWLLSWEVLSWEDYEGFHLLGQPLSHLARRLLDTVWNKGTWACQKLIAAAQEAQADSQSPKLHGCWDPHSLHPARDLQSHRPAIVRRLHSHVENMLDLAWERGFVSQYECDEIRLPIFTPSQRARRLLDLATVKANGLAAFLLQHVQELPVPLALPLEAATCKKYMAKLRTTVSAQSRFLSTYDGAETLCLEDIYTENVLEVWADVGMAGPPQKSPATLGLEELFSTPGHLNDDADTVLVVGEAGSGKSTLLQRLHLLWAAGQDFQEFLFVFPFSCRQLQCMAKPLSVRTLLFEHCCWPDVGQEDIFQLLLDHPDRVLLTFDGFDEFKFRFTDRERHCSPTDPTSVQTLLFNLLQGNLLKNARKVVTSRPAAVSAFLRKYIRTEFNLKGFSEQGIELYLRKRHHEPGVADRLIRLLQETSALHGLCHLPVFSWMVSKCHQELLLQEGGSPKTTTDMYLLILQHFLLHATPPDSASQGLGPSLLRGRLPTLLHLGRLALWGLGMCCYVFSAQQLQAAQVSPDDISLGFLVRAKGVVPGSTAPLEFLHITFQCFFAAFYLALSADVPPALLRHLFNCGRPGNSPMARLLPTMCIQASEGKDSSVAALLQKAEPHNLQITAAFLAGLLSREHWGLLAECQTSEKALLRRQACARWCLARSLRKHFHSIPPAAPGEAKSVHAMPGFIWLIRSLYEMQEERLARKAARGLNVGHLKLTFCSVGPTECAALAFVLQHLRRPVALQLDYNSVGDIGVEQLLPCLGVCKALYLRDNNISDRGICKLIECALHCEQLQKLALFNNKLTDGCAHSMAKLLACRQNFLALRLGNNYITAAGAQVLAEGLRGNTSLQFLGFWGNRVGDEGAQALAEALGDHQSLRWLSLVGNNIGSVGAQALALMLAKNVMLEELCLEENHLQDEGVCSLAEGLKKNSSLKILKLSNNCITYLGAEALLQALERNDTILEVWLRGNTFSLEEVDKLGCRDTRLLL
Chain of 26S proteasome non-ATPase regulatory subunit 14 (O00487 whole entry): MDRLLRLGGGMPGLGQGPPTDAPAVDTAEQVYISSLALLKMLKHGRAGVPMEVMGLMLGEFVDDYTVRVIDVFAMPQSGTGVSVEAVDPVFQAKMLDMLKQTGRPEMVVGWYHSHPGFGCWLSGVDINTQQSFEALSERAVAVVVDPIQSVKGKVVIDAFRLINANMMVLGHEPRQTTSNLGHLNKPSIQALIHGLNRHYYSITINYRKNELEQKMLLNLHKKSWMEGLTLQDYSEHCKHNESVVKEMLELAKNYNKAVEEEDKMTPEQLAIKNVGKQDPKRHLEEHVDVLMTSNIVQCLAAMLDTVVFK
Chain of Beta-galactosidase (Q8VNN2 whole entry): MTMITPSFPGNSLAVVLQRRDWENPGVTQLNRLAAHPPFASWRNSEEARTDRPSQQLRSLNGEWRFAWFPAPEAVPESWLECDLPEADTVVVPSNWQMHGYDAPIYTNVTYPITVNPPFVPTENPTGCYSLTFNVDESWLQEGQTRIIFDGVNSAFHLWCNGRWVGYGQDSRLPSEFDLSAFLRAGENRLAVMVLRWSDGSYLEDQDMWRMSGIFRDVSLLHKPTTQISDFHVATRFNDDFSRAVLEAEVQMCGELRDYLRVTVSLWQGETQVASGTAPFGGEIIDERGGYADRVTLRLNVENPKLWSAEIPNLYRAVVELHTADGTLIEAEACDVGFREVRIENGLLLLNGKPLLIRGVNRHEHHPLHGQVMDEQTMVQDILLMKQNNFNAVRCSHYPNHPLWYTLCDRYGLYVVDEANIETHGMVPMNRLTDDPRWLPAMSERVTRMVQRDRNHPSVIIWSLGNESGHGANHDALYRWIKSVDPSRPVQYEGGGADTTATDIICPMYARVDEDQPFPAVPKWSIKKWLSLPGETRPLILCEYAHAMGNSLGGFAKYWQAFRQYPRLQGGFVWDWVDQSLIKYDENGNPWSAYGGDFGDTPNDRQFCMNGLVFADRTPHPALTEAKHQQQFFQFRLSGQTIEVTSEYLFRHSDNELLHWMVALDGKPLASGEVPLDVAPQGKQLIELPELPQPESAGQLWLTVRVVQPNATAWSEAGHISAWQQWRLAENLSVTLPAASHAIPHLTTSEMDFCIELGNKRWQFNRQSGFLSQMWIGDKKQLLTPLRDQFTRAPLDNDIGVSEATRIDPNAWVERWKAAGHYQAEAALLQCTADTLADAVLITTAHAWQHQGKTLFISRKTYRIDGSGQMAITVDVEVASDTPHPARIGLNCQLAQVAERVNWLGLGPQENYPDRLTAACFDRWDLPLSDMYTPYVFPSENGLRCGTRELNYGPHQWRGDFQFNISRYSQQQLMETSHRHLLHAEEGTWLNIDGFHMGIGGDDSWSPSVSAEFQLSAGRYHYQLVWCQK
Chain of Benomyl/methotrexate resistance protein (P28873 whole entry): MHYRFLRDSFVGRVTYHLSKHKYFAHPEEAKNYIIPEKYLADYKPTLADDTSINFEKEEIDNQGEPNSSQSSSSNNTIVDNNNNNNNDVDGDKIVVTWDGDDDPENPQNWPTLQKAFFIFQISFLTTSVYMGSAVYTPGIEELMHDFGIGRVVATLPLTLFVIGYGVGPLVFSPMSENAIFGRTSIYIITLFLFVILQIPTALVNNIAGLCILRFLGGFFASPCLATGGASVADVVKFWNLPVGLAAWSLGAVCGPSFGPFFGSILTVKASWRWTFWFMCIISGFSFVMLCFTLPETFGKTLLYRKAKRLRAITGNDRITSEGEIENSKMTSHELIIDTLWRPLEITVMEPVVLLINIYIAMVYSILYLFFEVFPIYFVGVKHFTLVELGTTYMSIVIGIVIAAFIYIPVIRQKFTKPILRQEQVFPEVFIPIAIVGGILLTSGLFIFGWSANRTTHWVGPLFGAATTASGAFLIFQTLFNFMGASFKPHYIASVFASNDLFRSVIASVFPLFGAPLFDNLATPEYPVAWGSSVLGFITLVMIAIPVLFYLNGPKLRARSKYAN

O=C(Nc1nc(-c2ccccn2)cs1)c1ccc(Cl)s1
IC50 [1]: > 31.5 µM (inactive)
EC50 [2]: > 20 µM (inactive)
EC50 [3]: 0.506 µM (active)
IC50 [4]: > 20 µM (inactive)
AC50 [5]: 0.515 µM (active)
AC50 [6]: 0.74 µM (active)
IC50 [7]: 4.18 µM (active)
IC50 [8]: > 20 µM (inactive)
IC50 [9]: > 32 µM
EC50 [10]: > 31.5 µM (inactive)
IC50 [11]: 36.8 µM (inactive)
AC50 [12]: 0.949 µM (active)
AC50 [13]: 47.5 µM (active)
AC50 [14]: 0.817 µM (active)
EC50 [15]: 2.06 µM (inconclusive)
EC50 [16]: 7.06 µM (active)
IC50 [17]: 8.39 µM (active)
EC50 [18]: 0.279 µM (active)
AC50 [19]: 0.759 µM (active)

CCOc1ccc(Oc2c(SC)cnn(Cc3cccc4ccccc34)c2=O)cc1
IC50 [20]: 19.6 µM (inactive)
IC50 [21]: > 20 µM (inactive)

COc1ccc(Oc2c(Cl)cnn(CC(=O)OC(C)(C)C)c2=O)cc1
IC50 [20]: ~19.9 µM (inactive)
IC50 [21]: 14 µM (inactive)

Nc1c(Cl)cc(C2=NCCn3nc4ccccc4c32)cc1Cl
EC50 [22]: 3.99 µM (active)

CCCCCCCCCCOC(=O)Cn1c(COc2ccc(Cl)cc2)[n+](C)c2ccccc21
EC50 [23]: 12.9 µM (active)
AC50 [24]: 7.94 µM (active)
IC50 [25]: 6.53 µM (active)
IC50 [26]: 6.71 µM (active)
IC50 [27]: > 100 µM (inactive)
IC50 [28]: 19.1 µM (active)
IC50 [29]: 8.57 µM (active)
EC50 [30]: > 120 µM (not active)
AC50 [31]: 7.08 µM (active)
IC50 [32]: 44.6 µM (active)
IC50 [33]: 10.1 µM (active)
